Consider 40 compounds from US20240116857A1 (St. Louis University, priority 2022, published 2024).

The test system of the first assay is E. coli BW25113. The assay is described as follows: MIC, 2-fold broth dilution, E. coli BW25113. It is filed as cell-based, Escherichia coli. The settings on record: E. coli BW25113; asterisk in column 1-10. (Broth dilution looks for growth in wells or tubes with falling amounts of substance.)
Turning to “1,1′-((([1,1′-biphenyl]-4,4′-dicarbonyl)bis(azanediyl))bis(2-bromo-4,1-phenylene))bis(1-methylpiperidin-1-ium) [Example 88]”, the “MIC, μM 1-10” value was “* (1-10)”.

Staying with this assay, now noted: E. coli BW25113; asterisk in column >50.
“4,4′-(([1,1′-biphenyl]-4,4′-dicarbonyl)bis(azanediyl))bis(1,2-dimethylpyridin-1-ium) [Example 34]”: the “MIC, μM >50” value is recorded as “* (>50)”.
Same read-out and setting: under “4,4′-(([1,1′-biphenyl]-4,4′-dicarbonyl)bis(azanediyl))bis(3-hydroxy-N,N,N-trimethylbenzenaminium) [Example 57]” stands “* (>50)”.

Still in this assay, the particulars now being: Escherichia coli; E. coli BW25113; asterisk in column 10-50; read-out: MIC, μM 10-50.
In the case of `C[n+]1ccc(NC(=O)c2ccc(-c3ccc(C(=O)Nc4cc[n+](C)cc4)cc3)cc2)cc1` [Example 8], the MIC (as a rule, the smallest concentration in the dilution series that meets the test's criterion for growth inhibition) lay in the range of 10 to 50 µM.
Still for that read-out and setting: under `C[n+]1ccc(Oc2ccc(NC(=O)c3ccc(C(=O)Nc4ccc(Oc5cc[n+](C)cc5)cc4)cc3)cc2)cc1` [Example 13, 4,4′-(((terephthaloylbis(azanediyl))bis(4,1-phenylene))bis(oxy))bis(1-methylpyridin-1-ium)] stands 10 to 50 µM.
With `C[N+](C)(C)c1ccc(NC(=O)c2ccc(-c3ccc(C(=O)Nc4ccc([N+](C)(C)C)cc4)cc3)cc2)cc1` [Example 23, 4,4′-(([1,1′-biphenyl]-4,4′-dicarbonyl)bis(azanediyl))bis(N,N,N-trimethylbenzenaminium)], the MIC lay in the range of 10 to 50 µM.
Still for that read-out and setting: under `Cc1cc(NC(=O)c2ccc(-c3ccc(C(=O)Nc4cc[n+](C)c(C)c4)cc3)cc2)cc[n+]1C` [Example 29, 4,4′-(([1,1′-biphenyl]-4,4′-dicarbonyl)bis(azanediyl))bis(1,2-dimethylpyridin-1-ium)] stands 10 to 50 µM.

Staying with this assay, now noted: Escherichia coli; E. coli BW25113; asterisk in column >50; read-out: MIC, μM >50.
Consider `O=C(Nc1ccncc1)c1ccc(C(=O)Nc2ccncc2)cc1` [Example 1, N^1,N^4-di(pyridin-4-yl)terephthalamide], for which the MIC was over 50 µM.
On the same count and under the same terms, under `C[n+]1ccc(NC(=O)c2ccc(C(=O)Nc3cc[n+](C)cc3)cc2)cc1` [Example 2, 4,4′-(terephthaloylbis(azanediyl))bis(1-methylpyridin-1-ium)] stands over 50 µM; under `O=C(Nc1ccncc1)c1ccc2cc(C(=O)Nc3ccncc3)ccc2c1` [Example 3, N^2,N^6-di(pyridin-4-yl)naphthalene-2,6-dicarboxamide], over 50 µM.
Still for that read-out and setting: under `C[n+]1ccc(NC(=O)c2ccc3cc(C(=O)Nc4cc[n+](C)cc4)ccc3c2)cc1` [Example 4, 4,4′-((naphthalene-2,6-dicarbonyl)bis(azanediyl))bis(1-methylpyridin-1-ium)] stands over 50 µM; under `O=C(Nc1ccncc1)[C@H]1CC[C@H](C(=O)Nc2ccncc2)CC1` [Example 5, (E)-N^1,N^4-di(pyridin-4-yl)cyclohexane-1,4-dicarboxamide], over 50 µM.
For `C[n+]1ccc(NC(=O)[C@H]2CC[C@H](C(=O)Nc3cc[n+](C)cc3)CC2)cc1` [Example 6, 4,4′-((E)-cyclohexanedicarbonylbis(azanediyl))bis(1-methylpyridin-1-ium)], the MIC is over 50 µM.
The same measure, in the same setting: under `O=C(Nc1ccncc1)c1ccc(-c2ccc(C(=O)Nc3ccncc3)cc2)cc1` [Example 7, N^4,N^4′-di(pyridin-4-yl)-[1,1′-biphenyl]-4,4′-dicarboxamide] stands over 50 µM.
Consider `O=C(Nc1ccc(Nc2ccncc2)cc1)c1ccc(C(=O)Nc2ccc(Nc3ccncc3)cc2)cc1` [Example 9, N^1,N^4-bis(4-(pyridin-4-ylamino)phenyl)terephthalamide], for which the MIC is over 50 µM.
Turning to `O=C(Nc1ccc(Nc2ccccn2)cc1)c1ccc(C(=O)Nc2ccc(Nc3ccccn3)cc2)cc1` [Example 10, N^1,N^4-bis(4-(pyridin-2-ylamino)phenyl)terephthalamide], the MIC was over 50 µM.
On the same count and under the same terms, under `O=C(Nc1ccc(Oc2ccncc2)cc1)c1ccc(C(=O)Nc2ccc(Oc3ccncc3)cc2)cc1` [Example 11, N^1,N^4-bis(4-(pyridin-4-yloxy)phenyl)terephthalamide] stands over 50 µM; under `O=C(Nc1ccc(Cc2ccncc2)cc1)c1ccc(C(=O)Nc2ccc(Cc3ccncc3)cc2)cc1` [Example 12, N^1,N^4-bis(4-(pyridin-4-ylmethyl)phenyl)terephthalamide], over 50 µM; under `C[n+]1ccccc1Nc1ccc(NC(=O)c2ccc(C(=O)Nc3ccc(Nc4cccc[n+]4C)cc3)cc2)cc1` [Example 14, 2,2′-(((terephthaloylbis(azanediyl))bis(4,1-phenylene))bis(azanediyl))bis(1-methylpyridin-1-ium)], over 50 µM.
`O=C(Nc1ccc(Nc2ccncc2)cc1)c1ccc(-c2ccccc2)cc1` [Example 15, N-(4-(pyridin-4-ylamino)phenyl)-[1,1′-biphenyl]-4-carboxamide]: the MIC was over 50 µM.
The same measure, in the same setting: under `O=C(Nc1ccc(Nc2ccncc2)cc1)c1ccc(-c2ccc(C(=O)Nc3ccc(Nc4ccncc4)cc3)cc2)cc1` [Example 16, N^4,N^4′-bis(4-(pyridin-4-ylamino)phenyl)-[1,1′-biphenyl]-4,4′-dicarboxamide] stands over 50 µM; under `C[n+]1ccc(Nc2ccc(NC(=O)c3ccc(-c4ccccc4)cc3)cc2)cc1` [Example 18, 4-((4-([1,1′-biphenyl]-4-ylcarboxamido)phenyl)amino)-1-methylpyridin-1-ium], over 50 µM.
For `O=C(Nc1ccc(Nc2ccncc2)cc1)c1ccc(C(=O)Nc2ccc(Nc3ccncc3)cc2)c(Cl)c1` [Example 19, 2-chloro-N^1,N^4-bis(4-(pyridin-4-ylamino)phenyl)terephthalamide], the MIC is over 50 µM.
Take `O=C(Nc1ccc(Nc2ccncc2)cc1)c1ccc2cc(C(=O)Nc3ccc(Nc4ccncc4)cc3)ccc2c1` [Example 21, N^2,N^6-bis(4-(pyridin-4-ylamino)phenyl)naphthalene-2,6-dicarboxamide]: the MIC is over 50 µM.
Still for that read-out and setting: under `CN(C)c1ccc(NC(=O)c2ccc(-c3ccc(C(=O)Nc4ccc(N(C)C)cc4)cc3)cc2)cc1` [Example 22, N^4,N^4′-bis(4-(dimethylamino)phenyl)-[1,1′-biphenyl]-4,4′-dicarboxamide] stands over 50 µM; under `O=C(Nc1ccc(Nc2ccncc2)cc1)c1ccc(C(=O)Nc2ccc(Nc3ccncc3)cc2)c([N+](=O)[O-])c1` [Example 24, 2-nitro-N^1,N^4-bis(4-(pyridin-4-ylamino)phenyl)terephthalamide], over 50 µM; under `O=S(=O)(Nc1ccncc1)c1ccc(-c2ccc(S(=O)(=O)Nc3ccncc3)cc2)cc1` [Example 26, N^4,N^4′-di(pyridin-4-yl)-[1,1′-biphenyl]-4,4′-disulfonamide], over 50 µM.
On the same count and under the same terms, under `Cc1cc(NC(=O)c2ccc(-c3ccc(C(=O)Nc4ccnc(C)c4)cc3)cc2)ccn1` [Example 27, N^4,N^4′-bis(2-methylpyridin-4-yl)-[1,1′-biphenyl]-4,4′-dicarboxamide] stands over 50 µM.
Same read-out and setting: under `Cc1cnccc1NC(=O)c1ccc(-c2ccc(C(=O)Nc3ccncc3C)cc2)cc1` [Example 28, N^4,N^4′-bis(3-methylpyridin-4-yl)-[1,1′-biphenyl]-4,4′-dicarboxamide] stands over 50 µM.
As to `COc1cc(N(C)C)ccc1NC(=O)c1ccc(-c2ccc(C(=O)Nc3ccc(N(C)C)cc3OC)cc2)cc1` [Example 31, N^4,N^4′-bis(4-(dimethylamino)-2-methoxyphenyl)-[1,1′-biphenyl]-4,4′-dicarboxamide], the MIC was over 50 µM.
Same read-out and setting: under `COc1cc([N+](C)(C)C)ccc1NC(=O)c1ccc(-c2ccc(C(=O)Nc3ccc([N+](C)(C)C)cc3OC)cc2)cc1` [Example 32] stands over 50 µM; under `COc1cc(NC(=O)c2ccc(-c3ccc(C(=O)Nc4ccc(N(C)C)c(OC)c4)cc3)cc2)ccc1N(C)C` [Example 33, N^4,N^4′-bis(4-(dimethylamino)-3-methoxyphenyl)-[1,1′-biphenyl]-4,4′-dicarboxamide], over 50 µM; under `Cc1cc(NC(=O)c2ccc(-c3ccc(C(=O)Nc4ccc(N(C)C)c(C)c4)cc3)cc2)ccc1N(C)C` [Example 36, N^4,N^4′-bis(4-(dimethylamino)-3-methylphenyl)-[1,1′-biphenyl]-4,4′-dicarboxamide], over 50 µM.
On the same count and under the same terms, under `Cc1cc(NC(=O)c2ccc(-c3ccc(C(=O)Nc4ccc([N+](C)(C)C)c(C)c4)cc3)cc2)ccc1[N+](C)(C)C` [Example 37, 4,4′-(([1,1′-biphenyl]-4,4′-dicarbonyl)bis(azanediyl))bis(N,N,N,2-tetramethylbenzenaminium)] stands over 50 µM; under `CN(C)c1ccc(NC(=O)c2ccc(-c3ccc(C(=O)Nc4ccc(N(C)C)c(Cl)c4)cc3)cc2)cc1Cl` [Example 38, N^4,N^4′-bis(3-chloro-4-(dimethylamino)phenyl)-[1,1′-biphenyl]-4,4′-dicarboxamide], over 50 µM; under `Cc1cc(C(=O)Nc2ccc(N(C)C)cc2)ccc1-c1ccc(C(=O)Nc2ccc(N(C)C)cc2)cc1` [Example 40, N^4,N^4′-bis(4-(dimethylamino)phenyl)-2-methyl-[1,1′-biphenyl]-4,4′-dicarboxamide], over 50 µM.
As for `O=C(Nc1ccc(Nc2ccncc2)cc1)c1ccc(C(=O)Nc2ccc(Nc3ccncc3)cc2)c(C(F)(F)F)c1` [Example 41, N^1,N^4-bis(4-(pyridin-4-ylamino)phenyl)-2-(trifluoromethyl)terephthalamide], the minimal inhibitory concentration (MIC) was over 50 µM.
`Cc1cc(C(=O)Nc2ccc([N+](C)(C)C)cc2)ccc1-c1ccc(C(=O)Nc2ccc([N+](C)(C)C)cc2)cc1` [Example 42, 4,4′-((2-methyl-[1,1′-biphenyl]-4,4′-dicarbonyl)bis(azanediyl))bis(N,N,N-trimethylbenzenaminium)]: the MIC was over 50 µM.
Same read-out and setting: under `O=C(Nc1ccc(Nc2ccncc2)cc1)c1ccc(C(=O)Nc2ccc(Nc3ccncc3)cc2)c(OC(F)(F)F)c1` [Example 43, N^1,N^4-bis(4-(pyridin-4-ylamino)phenyl)-2-(trifluoromethoxy)terephthalamide] stands over 50 µM; under `CN(C)C1CCC(NC(=O)c2ccc(-c3ccc(C(=O)NC4CCC(N(C)C)CC4)cc3)cc2)CC1` (stereo not shown) [Example 46, N^4,N^4′-bis(4-(dimethylamino)cyclohexyl)-[1,1′-biphenyl]-4,4′-dicarboxamide], over 50 µM.
